Test results published in patent US4748161A, “Triterpenyl esters of organic acids and hypolipidemic agents composed of them” (Amano Pharmaceutical Co., Ltd., priority 1984, dated 1988).

System: serum lipids and serum lipid hydroperoxide
Test: Pharmacological test method A for anti-hyperlipidemic activity (serum lipids, 2 weeks feeding)
Format: in vivo, male Wistar strain rats
Conditions: for AI [(TC - HDL-C)/(HDL-C)] / HDL-C in serum / LPO in serum / PL in serum / TC in serum / TG in serum: 1% in hyperlipidemic diet, 2 weeks; for AI % of diff. / AI Diff. / HDL-C % of diff. / HDL-C Diff. / LPO % of diff. / LPO Diff. / PL % of diff. / PL Diff. / TC % of diff. / TC Diff. / TG % of diff. / TG Diff.: versus control group
Outline: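 Serum TC, HDL-C (heparin precipitation), PL, TG and LPO measured by colorimetric kits, largely at 500 nm, from abdominal aorta blood after 16 h fasting. Rats (male Wistar, 10/group) ate a cholesterol/cholic acid diet 10 g/day for 2 weeks, supplemented with 1% each of three cycloartane triterpenoids.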

| Structure (SMILES) | AI [(TC - HDL-C)/(HDL-C)] | HDL-C in serum [mg/dL] | LPO in serum [nmol/mL] | PL in serum [mg/dL] | TC in serum [mg/dL] | TG in serum [mg/dL] | AI % of diff. [%] | AI Diff. | HDL-C % of diff. | HDL-C Diff. | LPO % of diff. [%] | LPO Diff. [nmol/mL] | PL % of diff. [%] | PL Diff. [mg/dL] | TC % of diff. [%] | TC Diff. [mg/dL] | TG % of diff. [%] | TG Diff. [mg/dL] |
| --- | --- | --- | --- | --- | --- | --- | --- | --- | --- | --- | --- | --- | --- | --- | --- | --- | --- | --- |
| CC(C)=C(C)CCC(C)C1CCC2(C)C3CCC4C(C)(C)C(OC(=O)c5cccc(N)c5)CCC45CC35CCC12C (centres unmarked) [Example 49, cyclobranyl-m-aminobenzoate] | 1.288 | 58.0 | 2.02 | 128.4 | 132.7 | 18.3 | -30.3 | -0.559 | -1.2% | -0.7 mg/dL | -13.7 | -0.32 | -13.5 | -20.0 | -20.6 | -34.4 | -26.2 | -6.5 |
| CC(=O)Nc1ccc(C(=O)OC2CCC34CC35CCC3(C)C(C(C)CCC=C(C)C)CCC3(C)C5CCC4C2(C)C)cc1 (centres unmarked) [Example 20, cycloartenyl-p-acetamidobenzoate] | 0.867 | 90.4 | 2.02 | 143.3 | 168.8 | 35.2 | -29.1 | -0.355 | +4.5% | +3.9 mg/dl | -9.7 | -0.22 | -17.0 | -29.3 | -12.2 | -23.4 | -3.0 | -1.1 |
| C=C(CCC(C)C1CCC2(C)C3CCC4C(C)(C)C(OC(=O)C=Cc5ccc(O)c(O)c5)CCC45CC35CCC12C)C(C)C (centres unmarked) [Example 82, 24-Methylenecycloartanyl ester of 3,4-dihydroxycinnamic acid] | 1.228 | 87.9 | 2.08 | 173.9 | 195.8 | 42.3 | -27.1 | -0.456 | +8.7% | +7.0 mg/dl | -9.8 | -0.23 | -3.2 | -5.8 | -9.8 | -21.3 | -1.2 | -0.5 |
| CC(C)=CCCC(C)C1CCC2(C)C3CCC4C(C)(C)C(OC(=O)c5cccc(N)c5)CCC45CC35CCC12C (centres unmarked) [Example 23, cycloartenyl-m-aminobenzoate] | 1.506 | 58.9 | 2.06 | 133.1 | 147.6 | 20.2 | -18.5 | -0.341 | +0.3% | +0.2 mg/dl | -12.0 | -0.28 | -10.3 | -15.3 | -11.7 | -19.5 | -18.5 | -4.6 |
| CC(C)=CCCC(C)C1CCC2(C)C3CCC4C(C)(C)C(OC(=O)c5cccc(O)c5)CCC45CC35CCC12C (centres unmarked) [Example 12, cycloartenyl-m-hydroxybenzoate] | 1.571 | 58.5 | 2.03 | 140.4 | 150.4 | 24.0 | -14.9 | -0.276 | -0.3% | -0.2 mg/dL | -13.2 | -0.31 | -5.4 | -8.0 | -10.0 | -16.7 | -3.2 | -0.8 |
| CCCOc1cc(C=CC(=O)OC2CCC34CC35CCC3(C)C(C(C)CCC=C(C)C)CCC3(C)C5CCC4C2(C)C)ccc1O (centres unmarked) [Example 74, cycloartenyl-4-hydroxy-3-propoxycinnamate] | 0.787 | 92.4 | 2.09 | 162.1 | 165.1 | 33.1 | -21.5 | -0.215 | -4.0% | -3.8 mg/dL | -10.4 | -0.24 | -10.4 | -18.8 | 14.3 | -27.5 | -0.3 | -0.1 |
| CCCCC/C=C\C/C=C\CCCCCCCC(=O)OC1CCC23CC24CCC2(C)C(C(C)CCC=C(C)C)CCC2(C)C4CCC3C1(C)C (centres unmarked) [Example 25, cycloartenyl linolate] | 0.705 | 92.3 | 1.67 | 144.6 | 157.4 | 34.0 | -42.3 | -0.517 | +6.7% | +5.8 mg/dl | -25.6 | -0.57 | -16.2 | -28.0 | -18.1 | -34.8 | -6.2 | -2.3 |
| CC(C)=CCCC(C)C1CCC2(C)C3CCC4C(C)(C)C(OC(=O)c5ccccc5[N+](=O)[O-])CCC45CC35CCC12C (centres unmarked) [Example 16, cycloartenyl-o-nitrobenzoate] | 1.529 | 59.4 | 2.04 | 140.1 | 150.2 | 22.0 | -17.2 | -0.318 | +1.2% | +0.7 mg/dl | -12.8 | -0.30 | -5.6 | -8.3 | -10.1 | -16.9 | -11.3 | -2.8 |
| CC(C)=C(C)CCC(C)C1CCC2(C)C3CCC4C(C)(C)C(OC(=O)/C=C/c5ccc(O)c(O)c5)CCC45CC35CCC12C (centres unmarked) [Example 32, cyclobranyl-3,4-dihydroxycinnamate] | 1.135 | 89.2 | 2.06 | 168.2 | 190.4 | 40.7 | -32.6 |  | +10.2% | +8.3 mg/dl | -10.7 | -0.25 | -6.4 | -11.5 | -12.3 | -26.7 | -4.8 | -2.1 |
